According to the supplement of paper PMC10307832:

Columns and labels:
Assay in all cases: relative viability (nuclei count vs DMSO), 5 days (fraction); higher = more cells survive
MLN4924 + Luminespib = compound: NS(=O)(=O)OC[C@@H]1C[C@@H](n2ccc3c(N[C@H]4CCc5ccccc54)ncnc32)C[C@@H]1O [MLN4924] + CCNC(=O)c1noc(-c2cc(C(C)C)c(O)cc2O)c1-c1ccc(CN2CCOCC2)cc1 [Luminespib] (partner 0.01 µM)
Procedure, shortened: (§1)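 Lung cancer cell lines in 1536-well plates got either a single drug or a fixed anchor-drug dose together with five library-drug doses (not always all listed) in √10 steps, by pin tool, on the day after seeding. Nuclei were counted after 5 days, and relative viability is the treated-to-vehicle ratio of nuclei counts. Values are medians of duplicate plates.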

GSK126 + Decitabine = compound: CC[C@H](C)N1C=C(C2=C(C=C(C=C21)C3=CN=C(C=C3)N4CCNCC4)C(=O)NCC5=C(C=C(NC5=O)C)C)C [GSK126] + Nc1ncn([C@H]2C[C@H](O)[C@@H](CO)O2)c(=O)n1 [Decitabine] (partner 2 µM)
Procedure, shortened: as §1

Carboplatin + Bortezomib = compound: C1CC(C1)(C(=O)O)C(=O)O.[NH2-].[NH2-].[Pt+2] [Carboplatin] + CC(C)C[C@H](NC(=O)[C@H](Cc1ccccc1)NC(=O)c1cnccn1)B(O)O [Bortezomib] (partner 0.002 µM)
Procedure, shortened: as §1

Carboplatin + Crizotinib = compound: C1CC(C1)(C(=O)O)C(=O)O.[NH2-].[NH2-].[Pt+2] [Carboplatin] + C[C@@H](Oc1cc(-c2cnn(C3CCNCC3)c2)cnc1N)c1c(Cl)ccc(F)c1Cl [Crizotinib] (partner 1 µM)
Procedure, shortened: as §1

Cell Line: SW 1573
- relative viability (MLN4924 + Luminespib; first compound 0.04 µM): 0.259
- relative viability (MLN4924 + Luminespib; first compound 0.1265 µM): 0.365
- relative viability (MLN4924 + Luminespib; first compound 0.4 µM): 0.0849
- relative viability (MLN4924 + Luminespib; first compound 1.265 µM): 0.0812
- relative viability (MLN4924 + Luminespib; first compound 4 µM): 0.0892
- relative viability (GSK126 + Decitabine; first compound 0.08 µM): 0.648
- relative viability (GSK126 + Decitabine; first compound 0.253 µM): 0.463
- relative viability (GSK126 + Decitabine; first compound 0.8 µM): 0.431
- relative viability (GSK126 + Decitabine; first compound 2.53 µM): 0.573
- relative viability (GSK126 + Decitabine; first compound 8 µM): 0.517
- relative viability (Carboplatin + Bortezomib; first compound 0.08 µM): 1.09
- relative viability (Carboplatin + Bortezomib; first compound 0.253 µM): 1
- relative viability (Carboplatin + Bortezomib; first compound 0.8 µM): 1.12
- relative viability (Carboplatin + Bortezomib; first compound 2.53 µM): 1.05
- relative viability (Carboplatin + Bortezomib; first compound 8 µM): 0.808
- relative viability (Carboplatin + Crizotinib; first compound 0.08 µM): 0.821
- relative viability (Carboplatin + Crizotinib; first compound 0.253 µM): 0.781
- relative viability (Carboplatin + Crizotinib; first compound 0.8 µM): 0.652
- relative viability (Carboplatin + Crizotinib; first compound 2.53 µM): 0.886
- relative viability (Carboplatin + Crizotinib; first compound 8 µM): 0.661

Cell Line: NCI-H520
- relative viability (MLN4924 + Luminespib; first compound 0.04 µM): 0.25
- relative viability (MLN4924 + Luminespib; first compound 0.1265 µM): 0.2
- relative viability (MLN4924 + Luminespib; first compound 0.4 µM): 0.227
- relative viability (MLN4924 + Luminespib; first compound 1.265 µM): 0.213
- relative viability (MLN4924 + Luminespib; first compound 4 µM): 0.205
- relative viability (GSK126 + Decitabine; first compound 0.08 µM): 0.611
- relative viability (GSK126 + Decitabine; first compound 0.253 µM): 0.505
- relative viability (GSK126 + Decitabine; first compound 0.8 µM): 0.487
- relative viability (GSK126 + Decitabine; first compound 2.53 µM): 0.494
- relative viability (GSK126 + Decitabine; first compound 8 µM): 0.557
- relative viability (Carboplatin + Bortezomib; first compound 0.08 µM): 0.611
- relative viability (Carboplatin + Bortezomib; first compound 0.253 µM): 0.609
- relative viability (Carboplatin + Bortezomib; first compound 0.8 µM): 0.767
- relative viability (Carboplatin + Bortezomib; first compound 2.53 µM): 0.599
- relative viability (Carboplatin + Bortezomib; first compound 8 µM): 0.523
- relative viability (Carboplatin + Crizotinib; first compound 0.08 µM): 0.943
- relative viability (Carboplatin + Crizotinib; first compound 0.253 µM): 0.914
- relative viability (Carboplatin + Crizotinib; first compound 0.8 µM): 0.709
- relative viability (Carboplatin + Crizotinib; first compound 2.53 µM): 0.576
- relative viability (Carboplatin + Crizotinib; first compound 8 µM): 0.601

Cell Line: LCLC-97TM1
- relative viability (MLN4924 + Luminespib; first compound 0.04 µM): 0.586
- relative viability (MLN4924 + Luminespib; first compound 0.1265 µM): 0.343
- relative viability (MLN4924 + Luminespib; first compound 0.4 µM): 0.439
- relative viability (MLN4924 + Luminespib; first compound 1.265 µM): 0.128
- relative viability (MLN4924 + Luminespib; first compound 4 µM): 0.109
- relative viability (GSK126 + Decitabine; first compound 0.08 µM): 0.237
- relative viability (GSK126 + Decitabine; first compound 0.253 µM): 0.257
- relative viability (GSK126 + Decitabine; first compound 0.8 µM): 0.218
- relative viability (GSK126 + Decitabine; first compound 2.53 µM): 0.24
- relative viability (GSK126 + Decitabine; first compound 8 µM): 0.253
- relative viability (Carboplatin + Bortezomib; first compound 0.08 µM): 0.723
- relative viability (Carboplatin + Bortezomib; first compound 0.253 µM): 0.62
- relative viability (Carboplatin + Bortezomib; first compound 0.8 µM): 1.25
- relative viability (Carboplatin + Bortezomib; first compound 2.53 µM): 0.844
- relative viability (Carboplatin + Bortezomib; first compound 8 µM): 0.375
- relative viability (Carboplatin + Crizotinib; first compound 0.08 µM): 0.338
- relative viability (Carboplatin + Crizotinib; first compound 0.8 µM): 0.271
- relative viability (Carboplatin + Crizotinib; first compound 2.53 µM): 0.288
- relative viability (Carboplatin + Crizotinib; first compound 8 µM): 0.312

Cell Line: HCC-827
- relative viability (MLN4924 + Luminespib; first compound 0.04 µM): 0.68
- relative viability (MLN4924 + Luminespib; first compound 0.1265 µM): 0.588
- relative viability (MLN4924 + Luminespib; first compound 0.4 µM): 0.548
- relative viability (MLN4924 + Luminespib; first compound 1.265 µM): 0.159
- relative viability (MLN4924 + Luminespib; first compound 4 µM): 0.163
- relative viability (GSK126 + Decitabine; first compound 0.08 µM): 0.396
- relative viability (GSK126 + Decitabine; first compound 0.253 µM): 0.368
- relative viability (GSK126 + Decitabine; first compound 0.8 µM): 0.313
- relative viability (GSK126 + Decitabine; first compound 2.53 µM): 0.325
- relative viability (GSK126 + Decitabine; first compound 8 µM): 0.323
- relative viability (Carboplatin + Bortezomib; first compound 0.08 µM): 1.18
- relative viability (Carboplatin + Bortezomib; first compound 0.253 µM): 1.09
- relative viability (Carboplatin + Bortezomib; first compound 0.8 µM): 1.09
- relative viability (Carboplatin + Bortezomib; first compound 2.53 µM): 1.02
- relative viability (Carboplatin + Bortezomib; first compound 8 µM): 0.991
- relative viability (Carboplatin + Crizotinib; first compound 0.08 µM): 0.97
- relative viability (Carboplatin + Crizotinib; first compound 0.253 µM): 0.93
- relative viability (Carboplatin + Crizotinib; first compound 0.8 µM): 0.916
- relative viability (Carboplatin + Crizotinib; first compound 2.53 µM): 0.816
- relative viability (Carboplatin + Crizotinib; first compound 8 µM): 0.87

Cell Line: NCI-H1975
- relative viability (MLN4924 + Luminespib; first compound 0.04 µM): 0.322
- relative viability (MLN4924 + Luminespib; first compound 0.1265 µM): 0.556
- relative viability (MLN4924 + Luminespib; first compound 0.4 µM): 0.36
- relative viability (MLN4924 + Luminespib; first compound 1.265 µM): 0.382
- relative viability (MLN4924 + Luminespib; first compound 4 µM): 0.252
- relative viability (GSK126 + Decitabine; first compound 0.08 µM): 0.427
- relative viability (GSK126 + Decitabine; first compound 0.253 µM): 0.321
- relative viability (GSK126 + Decitabine; first compound 0.8 µM): 0.431
- relative viability (GSK126 + Decitabine; first compound 2.53 µM): 0.397
- relative viability (GSK126 + Decitabine; first compound 8 µM): 0.377
- relative viability (Carboplatin + Bortezomib; first compound 0.08 µM): 0.345
- relative viability (Carboplatin + Bortezomib; first compound 0.253 µM): 0.462
- relative viability (Carboplatin + Bortezomib; first compound 0.8 µM): 0.462
- relative viability (Carboplatin + Bortezomib; first compound 2.53 µM): 0.419
- relative viability (Carboplatin + Bortezomib; first compound 8 µM): 0.307
- relative viability (Carboplatin + Crizotinib; first compound 0.08 µM): 0.955
- relative viability (Carboplatin + Crizotinib; first compound 0.253 µM): 0.943
- relative viability (Carboplatin + Crizotinib; first compound 0.8 µM): 0.919
- relative viability (Carboplatin + Crizotinib; first compound 2.53 µM): 0.969
- relative viability (Carboplatin + Crizotinib; first compound 8 µM): 0.911
